Like-named read-outs stand apart in the source and are kept apart here.
Columns and labels:
[1] = tested on: Recombinant Respiratory Syncytial virus strain A2 containing the firefly luciferase reporter (RSV-Fluc); experiment: microbe, parasite or virus in culture; format: cell-based; details: human respiratory syncytial virus, NHBE
[2] = A549 cytotoxicity analysis (CellTiter-Glo); format: cell-based; details: human, A549 cells
Protocol: The cytotoxicity of compounds was determined in A549 cells in the following manner. Compounds (40 nL) were spotted onto 384-well Grenier plates prior to seeding 5000 A549 cells/well in a volume of 40 μL culture medium. The plates were incubated at 37° C. for 48 hours with 5% CO2. On day 2, 40 μL of CellTiter-Glo (Promega) was added and mixed 5 times. Plates were read for luminescence on an Envision (PerkinElmer) and the CC50 (compound concentration for reducing 50% of luminescence signal as a measure of cell viability) were calculated using a nonlinear regression model (four parameters). Two experiments were performed with technical duplicates.

[3] = tested on: SARS-CoV-2; experiment: microbe, parasite or virus in culture; format: cell-based
[4] = MT4 cytotoxicity (CC50); details: human, MT4 cells
[5] = 72 h, read-out: RSV-Fluc EC50 (NHBE), NHBE cells, three days, Table 1
[6] = Severe acute respiratory syndrome coronavirus 2, 48 h, read-out: SARS-CoV-2 EC50
[7] = 72 h, read-out: RSV-Fluc EC50 (NHBE), NHBE cells, three days, Table 2
[8] = Severe acute respiratory syndrome coronavirus 2, read-out: SARS EC50
[9] = Severe acute respiratory syndrome coronavirus 2, Table 3, read-out: SARS-CoV-2 EC50

Compound | EC50 [1, 5] | CC50 at 48 h ([2]; 48 hours, Table 1) | EC50 [3, 6] | CC50 ([4]; MT4 CC50, Table 1a) | EC50 ([1]; read-out: RSV EC50, Table 2a) | EC50 [3, 8] | CC50 ([4]; MT4 CC50, Table 2a) | other results
CCCCCCCCCCCCCCCCCCOC[C@H](COP(=O)(O)OC[C@H]1O[C@@](C#N)(c2ccc3c(N)ncnn23)[C@H](O)[C@@H]1O)OCc1cc(F)cc(C#N)c1 [Example 16, [(2R,3S,4R,5R)-5-(4-aminopyrrolo[2,1-f][1,2,4]triazin-7-yl)-5-cyano-3,4-dihydroxy-tetrahydrofuran-2-yl]methyl [(2R)-2-[(3-cyano-5-fluoro-phenyl)methoxy]-3-octadecoxy-propyl] hydrogen phosphate] | 60 nM | 18000 nM | 220 nM | 433 nM | – | – | – | –
CCCCCCCCCCCCCCCCCCCCOC[C@H](COP(=O)(O)OC[C@H]1O[C@@](C#N)(c2ccc3c(N)ncnn23)[C@H](O)[C@@H]1O)OCc1ccccc1 [Example 8, ((2R,3S,4R,5R)-5-(4-aminopyrrolo[2,1-f][1,2,4]triazin-7-yl)-5-cyano-3,4-dihydroxytetrahydrofuran-2-yl)methyl ((R)-2-(benzyloxy)-3-(icosyloxy)propyl) hydrogen phosphate] | 110 nM | 23000 nM | 800 nM | 33400 nM | – | – | – | –
CCCCCCCCCCCCCCCCCCOC[C@H](COP(=O)(O)OC[C@H]1O[C@@](C#N)(c2ccc3c(N)ncnn23)[C@H](O)[C@@H]1OC(=O)C(C)C)OCc1ccccc1 [Example 12, (2R,3S,4R,5R)-5-(4-aminopyrrolo[2,1-f][1,2,4]triazin-7-yl)-2-(((((R)-2-(benzyloxy)-3-(octadecyloxy)propoxy)(hydroxy)phosphoryl)oxy)methyl)-5-cyano-4-hydroxytetrahydrofuran-3-yl isobutyrate] | 260 nM | 50000 nM | 3200 nM | 50000 nM | – | – | – | –
CCCCCCCCCCCCCCCCCCOC[C@H](COP(=O)(O)OC[C@H]1O[C@@](C#N)(c2ccc3c(N)ncnn23)[C@H](O)[C@@H]1O)Oc1ccc(C#N)c(OC(C)C)c1 [Example 72, ((2R,3S,4R,5R)-5-(4-aminopyrrolo[2,1-f][1,2,4]triazin-7-yl)-5-cyano-3,4-dihydroxytetrahydrofuran-2-yl)methyl ((R)-2-(4-cyano-3-isopropoxyphenoxy)-3-(octadecyloxy)propyl) hydrogen phosphate] | – | – | – | – | 17 nM | 8350 nM | 279 nM | EC50 [1, 7]: 8 nM; CC50 at 48 h ([2]; Table 3): 240 nM
CCCCCCCCCCCCCCCCOC[C@H](COP(=O)(O)OC[C@H]1O[C@@](C#N)(c2ccc3c(N)ncnn23)[C@H](O)[C@@H]1O)OCc1cc(F)cc(C#N)c1 [Example 71, ((2R,3S,4R,5R)-5-(4-aminopyrrolo[2,1-f][1,2,4]triazin-7-yl)-5-cyano-3,4-dihydroxytetrahydrofuran-2-yl)methyl ((R)-2-((3-cyano-5-fluorobenzyl)oxy)-3-(hexadecyloxy)propyl) hydrogen phosphate] | – | – | – | – | 3 nM | 130 nM | 404 nM | EC50 [1, 7]: 30 nM; CC50 at 48 h ([2]; Table 3): 370 nM; EC50 [3, 9]: 130 nM
CCCCCCCCCCCCCCCCCCOC[C@H](COP(=O)(O)OC[C@H]1O[C@@](C#N)(c2ccc3c(N)ncnn23)[C@H](O)[C@@H]1O)OCc1ccccc1 [Example 1, ((2R,3S,4R,5R)-5-(4-aminopyrrolo[2,1-f][1,2,4]triazin-7-yl)-5-cyano-3,4-dihydroxytetrahydrofuran-2-yl)methyl ((R)-2-(benzyloxy)-3-(octadecyloxy)propyl) hydrogen phosphate] | 90 nM | 20000 nM | 940 nM | 3960 nM | – | – | – | –
CCCCCCCC/C=C\CCCCCCCCOC[C@H](COP(=O)(O)OC[C@H]1O[C@@](C#N)(c2ccc3c(N)ncnn23)[C@H](O)[C@@H]1O)OCc1cc(F)cc(C#N)c1 [Example 69, ((2R,3S,4R,5R)-5-(4-aminopyrrolo[2,1-f][1,2,4]triazin-7-yl)-5-cyano-3,4-dihydroxytetrahydrofuran-2-yl)methyl ((R)-2-((3-cyano-5-fluorobenzyl)oxy)-3-(((Z)-octadec-9-en-1-yl)oxy)propyl) hydrogen phosphate] | – | – | – | – | 23 nM | 150 nM | 730 nM | EC50 [1, 7]: 24 nM; CC50 at 48 h ([2]; Table 3): 860 nM; EC50 [3, 9]: 150 nM
CCCCCCCCCCCCCCCCCCOC[C@H](COP(=O)(O)OC[C@H]1O[C@@](C#N)(c2ccc3c(N)ncnn23)[C@H](O)[C@@H]1O)OCc1ccc(C#N)cc1 [Example 9, ((2R,3S,4R,5R)-5-(4-aminopyrrolo[2,1-f][1,2,4]triazin-7-yl)-5-cyano-3,4-dihydroxytetrahydrofuran-2-yl)methyl ((R)-2-((4-cyanobenzyl)oxy)-3-(octadecyloxy)propyl) hydrogen phosphate] | 50 nM | 30000 nM | 270 nM | 1430 nM | – | – | – | –
CCCCCCCCCCCCCCCCCCCOC[C@H](COP(=O)(O)OC[C@H]1O[C@@](C#N)(c2ccc3c(N)ncnn23)[C@H](O)[C@@H]1O)OCc1cc(F)cc(C#N)c1 [Example 70, ((2R,3S,4R,5R)-5-(4-aminopyrrolo[2,1-f][1,2,4]triazin-7-yl)-5-cyano-3,4-dihydroxytetrahydrofuran-2-yl)methyl ((R)-2-((3-cyano-5-fluorobenzyl)oxy)-3-(nonadecyloxy)propyl) hydrogen phosphate] | – | – | – | – | 66 nM | – | 854 nM | EC50 [1, 7]: 60 nM; CC50 at 48 h ([2]; Table 3): 1100 nM
CCCCCCCCCCCCCCCCCCOC[C@H](COP(=O)(O)OC[C@H]1O[C@@](C#N)(c2ccc3c(N)ncnn23)[C@H](O)[C@@H]1O)OCc1ccc(C(F)(F)F)cc1 [Example 11, ((2R,3S,4R,5R)-5-(4-aminopyrrolo[2,1-f][1,2,4]triazin-7-yl)-5-cyano-3,4-dihydroxytetrahydrofuran-2-yl)methyl ((R)-3-(octadecyloxy)-2-((4-(trifluoromethyl)benzyl)oxy)propyl) hydrogen phosphate] | 60 nM | > 50000 nM | 350 nM | 14500 nM | – | – | – | –
CCCCCCCCCCCCCCCCCCOC[C@H](COP(=O)(O)OC[C@H]1O[C@@](C#N)(c2ccc3c(N)ncnn23)[C@H](O)[C@@H]1O)OCc1ccc2ccccc2c1 [Example 4, ((2R,3S,4R,5R)-5-(4-aminopyrrolo[2,1-f][1,2,4]triazin-7-yl)-5-cyano-3,4-dihydroxytetrahydrofuran-2-yl)methyl ((R)-2-(naphthalen-2-ylmethoxy)-3-(octadecyloxy)propyl) hydrogen phosphate] | 60 nM | 17000 nM | 340 nM | 4170 nM | – | – | – | –
CCCCCCCCCCCCCCCCCCOC[C@H](COP(=O)(O)OC[C@H]1O[C@@](C#N)(c2ccc3c(N)ncnn23)[C@H](O)[C@@H]1O)OCc1ccc(-c2ccccc2)cc1 [Example 2, (R)-2-([1,1′-biphenyl]-4-ylmethoxy)-3-(octadecyloxy)propyl (((2R,3S,4R,5R)-5-(4-aminopyrrolo[2,1-f][1,2,4]triazin-7-yl)-5-cyano-3,4-dihydroxytetrahydrofuran-2-yl)methyl) hydrogen phosphate] | 350 nM | > 50000 nM | 430 nM | 14700 nM | – | – | – | –
CCCCCCCCCCCCCCCCCCCOC[C@H](COP(=O)(O)OC[C@H]1O[C@@](C#N)(c2ccc3c(N)ncnn23)[C@H](O)[C@@H]1O)OCc1ccccc1 [Example 7, ((2R,3S,4R,5R)-5-(4-aminopyrrolo[2,1-f][1,2,4]triazin-7-yl)-5-cyano-3,4-dihydroxytetrahydrofuran-2-yl)methyl ((R)-2-(benzyloxy)-3-(nonadecyloxy)propyl) hydrogen phosphate] | 80 nM | > 50000 nM | 370 nM | 13900 nM | – | – | – | –
CCCCCCCCCCCCCCCCCCOC[C@@H](COP(=O)(O)OC[C@H]1O[C@@](C#N)(c2ccc3c(N)ncnn23)[C@H](O)[C@@H]1O)OCc1ccccc1 [Example 18, ((2R,3S,4R,5R)-5-(4-aminopyrrolo[2,1-f][1,2,4]triazin-7-yl)-5-cyano-3,4-dihydroxytetrahydrofuran-2-yl)methyl ((S)-2-(benzyloxy)-3-(octadecyloxy)propyl) hydrogen phosphate] | 110 nM | > 50000 nM | 320 nM | – | – | – | – | –
CCCCCCCCCCCCCCCCCCOC[C@H](COP(=O)(O)OC[C@H]1O[C@@](C#N)(c2ccc3c(N)ncnn23)[C@H](O)[C@@H]1O)Oc1ccc(C#N)nn1 [Example 80, ((2R,3S,4R,5R)-5-(4-aminopyrrolo[2,1-f][1,2,4]triazin-7-yl)-5-cyano-3,4-dihydroxytetrahydrofuran-2-yl)methyl ((R)-2-((6-cyanopyridazin-3-yl)oxy)-3-(octadecyloxy)propyl) hydrogen phosphate] | – | – | – | – | – | 54 nM | – | EC50 ([1]; read-out: RSV EC50, Table 4): 13 nM; CC50 ([4]; MT4 CC50, Table 4): 344 nM
CCCCCCCCCCCCCCCCCOC[C@H](COP(=O)(O)OC[C@H]1O[C@@](C#N)(c2ccc3c(N)ncnn23)[C@H](O)[C@@H]1O)OCc1cccc(C#N)c1 [Example 34, ((2R,3S,4R,5R)-5-(4-aminopyrrolo[2,1-f][1,2,4]triazin-7-yl)-5-cyano-3,4-dihydroxytetrahydrofuran-2-yl)methyl ((R)-2-((3-cyanobenzyl)oxy)-3-(heptadecyloxy)propyl) hydrogen phosphate] | – | – | – | – | 25 nM | 582 nM | 550 nM | –
